# Assays:
# Assay in all cases: relative viability (nuclei count vs DMSO), 5 days (fraction); higher = more cells survive
# [1] = system: A-427
# Summary of the method: (§1)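 Medians of duplicate plates are given as relative viability. That measure is the nuclei count in treated wells divided by the count in vehicle wells. Counts were taken on 4× images of lung cancer cell lines in 1536-well plates, 5 days after pin-tool dosing the day after seeding with one drug alone or a fixed anchor-drug dose plus five library-drug doses (not always all listed) in √10 steps.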
# [2] = system: ABC-1
# Summary of the method: as §1
# [3] = system: COR-L23
# Summary of the method: as §1
# [4] = system: EMC-BAC-2
# Summary of the method: as §1
# [5] = system: HARA
# Summary of the method: as §1
# [6] = system: HCC-15
# Summary of the method: as §1
# [7] = system: HCC-366
# Summary of the method: as §1
# [8] = system: HCC-78
# Summary of the method: as §1
# [9] = system: LC-2-ad
# Summary of the method: as §1
# [10] = system: LK-2
# Summary of the method: as §1
# [11] = system: NCI-H1734
# Summary of the method: as §1
# [12] = system: NCI-H1793
# Summary of the method: as §1
# [13] = system: NCI-H1944
# Summary of the method: as §1
# [14] = system: NCI-H1993
# Summary of the method: as §1
# [15] = system: NCI-H2009
# Summary of the method: as §1
# [16] = system: NCI-H2023
# Summary of the method: as §1
# [17] = system: NCI-H2228
# Summary of the method: as §1
# [18] = system: NCI-H23
# Summary of the method: as §1
# [19] = system: NCI-H2405
# Summary of the method: as §1
# [20] = system: NCI-H838
# Summary of the method: as §1
# [21] = system: SK-LU-1
# Summary of the method: as §1
# [22] = system: UMC-11
# Summary of the method: as §1
smiles,measurement,setting,value
C[C@@H]1CN(CC(=O)Nc2ccc3c(c2)Cc2cccc(-c4cc(=O)cc(N5CCOCC5)o4)c2S3)C[C@H](C)O1 + Cc1nc(NC(=O)N2CCC[C@H]2C(N)=O)sc1-c1ccnc(C(C)(C)C(F)(F)F)c1 [Alpelisib] (partner 2 µM),relative viability,[1]; first compound 0.04 µM,1.12
same,relative viability,[1]; first compound 0.1265 µM,1.08
same,relative viability,[1]; first compound 0.4 µM,1.07
same,relative viability,[1]; first compound 4 µM,1.07
same,relative viability,[2]; first compound 0.1265 µM,1.05
same,relative viability,[2]; first compound 0.4 µM,0.872
same,relative viability,[2]; first compound 4 µM,0.466
same,relative viability,[3]; first compound 0.04 µM,1.02
same,relative viability,[3]; first compound 0.1265 µM,0.802
same,relative viability,[3]; first compound 0.4 µM,0.798
same,relative viability,[3]; first compound 4 µM,0.727
same,relative viability,[4]; first compound 0.04 µM,0.748
same,relative viability,[4]; first compound 0.1265 µM,0.771
same,relative viability,[4]; first compound 0.4 µM,0.726
same,relative viability,[4]; first compound 4 µM,0.73
same,relative viability,[5]; first compound 0.04 µM,0.81
same,relative viability,[5]; first compound 0.1265 µM,0.637
same,relative viability,[5]; first compound 0.4 µM,0.711
same,relative viability,[5]; first compound 4 µM,0.78
same,relative viability,[6]; first compound 0.04 µM,0.976
same,relative viability,[6]; first compound 0.1265 µM,0.881
same,relative viability,[6]; first compound 0.4 µM,0.826
same,relative viability,[6]; first compound 4 µM,0.71
same,relative viability,[7]; first compound 0.04 µM,0.379
same,relative viability,[7]; first compound 0.1265 µM,0.414
same,relative viability,[7]; first compound 0.4 µM,0.315
same,relative viability,[7]; first compound 4 µM,0.368
same,relative viability,[8]; first compound 0.04 µM,0.303
same,relative viability,[8]; first compound 0.1265 µM,0.3
same,relative viability,[8]; first compound 0.4 µM,0.278
same,relative viability,[8]; first compound 4 µM,0.33
same,relative viability,[9]; first compound 0.04 µM,1.02
same,relative viability,[9]; first compound 0.1265 µM,0.864
same,relative viability,[9]; first compound 0.4 µM,0.77
same,relative viability,[9]; first compound 4 µM,0.848
same,relative viability,[10]; first compound 0.1265 µM,1.11
same,relative viability,[10]; first compound 0.4 µM,1.18
same,relative viability,[10]; first compound 4 µM,1.28
same,relative viability,[11]; first compound 0.04 µM,0.759
same,relative viability,[11]; first compound 0.1265 µM,0.673
same,relative viability,[11]; first compound 0.4 µM,0.567
same,relative viability,[11]; first compound 4 µM,0.746
same,relative viability,[12]; first compound 0.04 µM,0.717
same,relative viability,[12]; first compound 0.1265 µM,0.614
same,relative viability,[12]; first compound 0.4 µM,0.514
same,relative viability,[12]; first compound 4 µM,0.585
same,relative viability,[13]; first compound 0.1265 µM,0.826
same,relative viability,[13]; first compound 0.4 µM,0.86
same,relative viability,[13]; first compound 4 µM,0.814
same,relative viability,[14]; first compound 0.04 µM,0.641
same,relative viability,[14]; first compound 0.1265 µM,0.685
same,relative viability,[14]; first compound 0.4 µM,0.592
same,relative viability,[14]; first compound 4 µM,0.62
same,relative viability,[15]; first compound 0.04 µM,1.23
same,relative viability,[15]; first compound 0.1265 µM,1.09
same,relative viability,[15]; first compound 0.4 µM,1.09
same,relative viability,[15]; first compound 4 µM,0.974
same,relative viability,[16]; first compound 0.04 µM,0.69
same,relative viability,[16]; first compound 0.1265 µM,0.579
same,relative viability,[16]; first compound 0.4 µM,0.407
same,relative viability,[16]; first compound 4 µM,0.473
same,relative viability,[17]; first compound 0.04 µM,0.708
same,relative viability,[17]; first compound 0.1265 µM,0.707
same,relative viability,[17]; first compound 0.4 µM,0.754
same,relative viability,[17]; first compound 4 µM,0.485
same,relative viability,[18]; first compound 0.04 µM,0.715
same,relative viability,[18]; first compound 0.1265 µM,0.639
same,relative viability,[18]; first compound 0.4 µM,0.624
same,relative viability,[18]; first compound 4 µM,0.727
same,relative viability,[19]; first compound 0.04 µM,0.899
same,relative viability,[19]; first compound 0.1265 µM,0.818
same,relative viability,[19]; first compound 0.4 µM,0.769
same,relative viability,[19]; first compound 4 µM,0.698
same,relative viability,[20]; first compound 0.04 µM,0.971
same,relative viability,[20]; first compound 0.1265 µM,0.913
same,relative viability,[20]; first compound 0.4 µM,0.906
same,relative viability,[20]; first compound 4 µM,0.784
same,relative viability,[21]; first compound 0.04 µM,1.21
same,relative viability,[21]; first compound 0.1265 µM,1.05
same,relative viability,[21]; first compound 0.4 µM,0.936
same,relative viability,[21]; first compound 4 µM,0.645
same,relative viability,[22]; first compound 0.04 µM,1.1
same,relative viability,[22]; first compound 0.1265 µM,1.02
same,relative viability,[22]; first compound 0.4 µM,1.1
same,relative viability,[22]; first compound 4 µM,0.737
CC(C)Oc1cc(Nc2nc(N[C@@H](C)c3ccc(F)cn3)ncc2Cl)n[nH]1 [AZ23] + C[C@]1(O)C[C@@H](c2nc(-c3ccc4ccc(-c5ccccc5)nc4c3)c3c(N)nccn32)C1 [Linsitinib] (partner 1 µM),relative viability,[1]; first compound 0.01 µM,1.24
same,relative viability,[1]; first compound 0.03162 µM,1.11
same,relative viability,[1]; first compound 0.3162 µM,1.16
same,relative viability,[2]; first compound 0.01 µM,0.573
same,relative viability,[2]; first compound 0.03162 µM,0.916
same,relative viability,[2]; first compound 0.3162 µM,0.866
same,relative viability,[3]; first compound 0.01 µM,0.948
same,relative viability,[3]; first compound 0.03162 µM,1.11
same,relative viability,[3]; first compound 0.3162 µM,0.878
same,relative viability,[4]; first compound 0.01 µM,1.09
same,relative viability,[4]; first compound 0.03162 µM,0.814
same,relative viability,[4]; first compound 0.3162 µM,0.884
same,relative viability,[5]; first compound 0.01 µM,0.977
same,relative viability,[5]; first compound 0.03162 µM,1.04
same,relative viability,[5]; first compound 0.3162 µM,0.854
same,relative viability,[6]; first compound 0.01 µM,0.916
same,relative viability,[6]; first compound 0.03162 µM,0.906
same,relative viability,[6]; first compound 0.3162 µM,0.875
same,relative viability,[7]; first compound 0.01 µM,0.596
same,relative viability,[7]; first compound 0.03162 µM,0.902
same,relative viability,[7]; first compound 0.3162 µM,0.56
same,relative viability,[8]; first compound 0.01 µM,0.495
same,relative viability,[8]; first compound 0.03162 µM,0.431
same,relative viability,[8]; first compound 0.3162 µM,0.434
same,relative viability,[9]; first compound 0.01 µM,0.941
same,relative viability,[9]; first compound 0.03162 µM,0.931
same,relative viability,[9]; first compound 0.3162 µM,0.851
same,relative viability,[10]; first compound 0.01 µM,0.325
same,relative viability,[10]; first compound 0.03162 µM,0.538
same,relative viability,[10]; first compound 0.3162 µM,0.5
same,relative viability,[11]; first compound 0.01 µM,0.921
same,relative viability,[11]; first compound 0.03162 µM,0.814
same,relative viability,[11]; first compound 0.3162 µM,0.894
same,relative viability,[12]; first compound 0.01 µM,1.04
same,relative viability,[12]; first compound 0.03162 µM,0.983
same,relative viability,[12]; first compound 0.3162 µM,0.952
same,relative viability,[13]; first compound 0.01 µM,1.12
same,relative viability,[13]; first compound 0.03162 µM,1.18
same,relative viability,[13]; first compound 0.3162 µM,1.26
same,relative viability,[14]; first compound 0.01 µM,0.801
same,relative viability,[14]; first compound 0.3162 µM,0.724
same,relative viability,[15]; first compound 0.01 µM,1.17
same,relative viability,[15]; first compound 0.03162 µM,1.25
same,relative viability,[15]; first compound 0.3162 µM,1.18
same,relative viability,[16]; first compound 0.03162 µM,0.666
same,relative viability,[16]; first compound 0.3162 µM,0.731
same,relative viability,[17]; first compound 0.01 µM,0.828
same,relative viability,[17]; first compound 0.03162 µM,0.727
same,relative viability,[17]; first compound 0.3162 µM,0.473
same,relative viability,[18]; first compound 0.03162 µM,0.697
same,relative viability,[18]; first compound 0.3162 µM,0.596
same,relative viability,[19]; first compound 0.01 µM,0.976
same,relative viability,[19]; first compound 0.03162 µM,0.902
same,relative viability,[19]; first compound 0.3162 µM,0.873
same,relative viability,[20]; first compound 0.01 µM,1.02
same,relative viability,[20]; first compound 0.03162 µM,1.23
same,relative viability,[20]; first compound 0.3162 µM,0.945
same,relative viability,[21]; first compound 0.01 µM,0.893
same,relative viability,[21]; first compound 0.03162 µM,1.16
same,relative viability,[21]; first compound 0.3162 µM,0.932
same,relative viability,[22]; first compound 0.01 µM,1.04
same,relative viability,[22]; first compound 0.03162 µM,1.04
same,relative viability,[22]; first compound 0.3162 µM,1.01

# From the supplement of paper PMC10307832
